The record followed here is patent US6777405B2, “Detection and treatment of duplex polynucleotide damage” (California Institute of Technology, priority 1997, dated 2004).

Test [1] has as its system mismatch-sequence context combinations in DNA duplexes. Description: Photocleavage with systematically changed bases 5′ and 3′ of the mismatch site. It counts as biochemical. Particulars: flanking bases 5′ and 3′ of the mismatch systematically changed.
Test [2] deals with hairpin DNA oligonucleotide (SEQ ID NO:3) having a single C-C mismatch. Description: Photocleavage titration on hairpin DNA with single C-C mismatch. Particulars: 313 or 365 nm, Rh complex at 0.10× DNA concentration, single binding site model fit. As to the method: A hairpin DNA oligonucleotide was synthesized with the sequence:
5′-[…]-3′ (SEQ ID NO:3), having a single C-C mismatch. The hairpin was photocleaved as described in Example 2 above with Δ[Rh(bpy)2(chrysi)]^3+ at either 313 nm or 365 nm for 7.5 to 15 min. Hairpin DNA concentration was varied from 3×10^−10 M to 1×10^−4 M, with the Rh complex used at 0.10× the DNA concentration. The cleavage products were eluted through 20% denaturing polyacrylamide gels, and analyzed using a Molecular Dynamics Phosphorimager and ImageQuant software. Cleavage was observed 3′ to the C-C mismatch on both sides of the hairpin: only the cleavage band closest to the end label was quantitated. Data from multiple trials was normalized (open circles) and fit to a standard single binding site binding model (solid line).
(§1) The thermodynamic binding constant was determined to be 8.4 (±1.0)×10^5 M^−1. Similar DNA photocleavage titrations at other mismatch sites have measured the affinity of Δ [Rh(bpy)2(chrysi)]^3+ between 1×10^7 and 3×10^5 M^−1. To examine the level of selectivity the average binding constant of Δ[Rh(bpy)2(chrysi)]^3+ to B-form DNA was also determined. Photocleavage on a 33mer correctly matched hairpin and competitive titration with unlabeled 25mer B-DNA yielded a value of 4 (±2)×10^4 M^−1 for the average non-specific binding affinity.

The test system of test [3] is B-form DNA (33mer correctly matched hairpin, 25mer B-DNA). In words: Photocleavage on correctly matched hairpin and competitive titration with unlabeled B-DNA. It counts as binding. The protocol: as §1
Test [4] concerns DNA duplexes having a single base pair mismatch (SEQ ID NO:1/SEQ ID NO:2). In words: Photocleavage of 17-mer DNA duplexes with a single base pair mismatch (365 nm, PAGE). Format: biochemical. As to the method:
A set of DNA duplexes was prepared having the following sequence:
3′-[…]-5′(SEQ ID NO:1)
5′-[…]-3′(SEQ ID NO:2),
where X and Y were varied to provide A-T, G-C, and the following mismatches: C-C, C-A, T-T, A-A, T-C, T-G, G-A, and G-G. All oligonucleotides were prepared using standard phosphoramidite chemistry, and were purified by reverse phase HPLC. The oligonucleotides were 5′ end-labeled with γ-^32P ATP (Dupont-NEN) and T4 polynucleotide kinase (New England Biolabs).
Duplexes (10 μM) were incubated with Δ or Λ [Rh(bpy)2(chrysi)]^3+(1 μM in 50 mM Tris, 20 mM NaOAc, 18 mM NaCl, pH 7.0) for 11 minutes, then irradiated for 13 min at 365 nm using an Oriel HgXe arc lamp. The products were analyzed by PAGE (20%, denaturing), imaged using a Molecular Dynamics Phosphorimager. The lanes labeled A+G and C+T are standard Maxam-Gilbert sequencing reactions: the remaining columns show cleavage (or lack of cleavage) for each tested mismatch with each enantiomer. […] Here, cleavage occurred to the 3′ side of the mismatch site. […] Unlike the other recognized mismatches, the cleavage 3′ to C-A results in two products having different gel mobility, possibly the result of chemically different polymer termini. The cleavage of A-A was also distinctive.

Where [5] appears, read: duplex 10 μM, complex 1 μM, 13 min at 365 nm.
Setting [6] is: duplex 10 μM, complex 1 μM, 13 min at 365 nm, compared with C-C.

Turning to “Δ-[Rh(bpy)2(chrysi)]Cl3 [Δ[Rh(bpy)2(chrysi)]^3+]”, in test [1], the “mismatch-sequence context combinations at which photocleavage was observed (count)” value is 83 of 104 and the “mismatch-sequence context combinations at which photocleavage was observed (percent)” value came out at 80%. The thermodynamic binding constant in test [2] is recorded as 8.4 (±1.0)×10^5 M^−1. For the same substance, the “average non-specific binding affinity” value in test [3] is on record as 4 (±2)×10^4 M^−1. Further, in test [4] (setting [5]), the “photocleavage at A-A mismatch, base 3′ to the site” value is recorded as “strong cleavage” and the “photocleavage at the A-A site itself” value is on record as “a small amount of cleavage”. For the same substance, the “photocleavage at C-A mismatch” value in test [4] (duplex 10 μM, complex 1 μM, 13 min at 365 nm, at the mismatched C and the base 3′ to the mismatch site) is “Strong cutting”. Besides, in test [4] (setting [6]), the “photocleavage at T-C mismatch” value is on record as “less intense cleavage” and the “photocleavage at T-T mismatch” value is on record as “less intense cleavage”. Also, the “photocleavage at C-C mismatch” value in test [4] (duplex 10 μM, complex 1 μM, pH 7.0, irradiated 13 min at 365 nm, cleavage to the 3′ side of the mismatch site) is recorded as “strongest cleavage intensity”.

With Λ-[Rh(bpy)2(chrysi)]Cl3 [Λ enantiomer], the “mismatch pairs cleaved among all tested pairs” value in test [4] (A-T, G-C, C-C, C-A, T-T, A-A, T-C, T-G, G-A, G-G tested) is reported as “The A-A mismatch is the only pair cleaved”. In addition, the “photocleavage at A-A mismatch relative to the other enantiomer” value in test [4] (setting [5]) was “weaker cleavage”.
